From patent US7148193B2, “Compounds that bind to growth hormone receptor” (Antyra, Inc., priority 1997, dated 2006)
Where a SMILES comes first, the peptide text is derived from it. Bridges are numbered along the chain shown (N, C = ends).

Assays:
[1] = target: T1, rGHBP (Rattus norvegicus, UniProt P16310); test: Phage ELISA binding and competition on rGHBP coated wells
T1 construct: 1–48 of GHBP; The 3′ oligo used for this reaction encoded the mutation L43R (CTG→AGA); The second PCR reaction amplified the DNA encoding amino acids 38–260; 6xHis; made in house
T1 sequence (P16310 19-278 isoform P16310-2): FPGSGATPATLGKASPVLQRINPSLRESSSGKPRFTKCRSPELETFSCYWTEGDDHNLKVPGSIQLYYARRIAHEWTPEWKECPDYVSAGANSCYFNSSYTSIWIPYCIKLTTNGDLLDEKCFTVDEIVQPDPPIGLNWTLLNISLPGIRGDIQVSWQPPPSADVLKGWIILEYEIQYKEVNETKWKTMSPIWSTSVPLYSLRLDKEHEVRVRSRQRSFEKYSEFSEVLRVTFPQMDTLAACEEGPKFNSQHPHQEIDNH
Procedure: For analysis of individual clones, colonies were picked and phage prepared as described above. Microtiter wells were coated and blocked as described above. Wells were coated with either rGHBP or a control IgG MAb. Phage resuspended in MPBS were added to duplicate wells (100 μl/well) and incubated at room temperature for 1 hr. The phage solution was then removed, and the wells were washed three times with PBS at room temperature. Anti-M13 antibody conjugated to horseradish peroxidase (Pharmacia Biotech) was diluted 1:3000 in MPBS and added to each well (100 μl/well). Incubation was for another hour at room temperature, followed by PBS washes as described. Color was developed by addition of ABTS solution (100 μl/well; Boehringer). Color development was stopped by adjusting each well to 0.5% SDS. Plates were analyzed at 405 nm using a SpectraMax 340 plate reader (Molecular Devices) and SoftMax Pro software. Data points were averaged after subtraction of appropriate blanks. A clone was considered “positive” if the A405 of the well was >2-fold over background. […]
These clones were next analyzed for binding to the receptor's active sites (FIG. 2B). Competitions of phage binding were done both with the cognate ligand (i.e., GH) and with a specific target-neutralizing MAb 2C3 (Wang, B. S., et al. Mol. Cellular Endocrinology, vol. 116, p. 223–226, 1996).
Clones were tested for the presence of E-tag and binding to ‘hu’ GHBP, rGHBP, or BSA-coated wells. Those having specific GHBP binding (i.e., at least 2 fold greater binding to the GHBP than BSA) and with an E-tag positive signal were subjected to DNA sequencing. Three different clones were isolated and tested a second time against GHBP plus and minus GH (1 μM) or BSA (1 μM) coated wells as described. In these tests, huGH was used as competitor with ‘hu’ GHBP coated wells and bovineGH was used as a competitor with rat GHBP coated wells. […] The following open reading frame insertion including the DYKD (SEQ ID NO:79) amino terminal tag and up to the C-terminal E-tag was obtained for these clones; and is shown in Table III: […]

[2] = target: T1, rGHBP; test: Time-resolved fluorometric detection (TRFD) of specific bLigand binding to rGHBP and its competition; details: TRFD
Procedure: For this invention, saEu forms a ternary complex with bP and rGHBP (i.e., the rGHBP:bP:saEu complex). As described herein, the TRFD assay is performed using biotinylated GH (bGH) as bLigand. Biotinylated H5-mutant peptides bP#447 (SEQ ID NO:11) and bP#418 (SEQ ID NO:12) are also used as bLigand (see below). The TRFD assay described herein faithfully reports the competition of ligand binding to the active site of rGHR. To perform the TRFD assays, soluble rGHBP is attached to the surface of microtiter wells, then incubated with bP. Unbound bP is than washed away and (sa)Eu is added to complex with receptor bound bP. The rGHBP:bP bound (sa)Eu is then converted into its highly fluorescent state and detected by TRFD.
Wells were coated with rGHBP(100 ng/well) overnight as described. ED50 and IC50 were calculated from analysis of specific bLigand binding to rGHBP. Competitors were added 1 hr prior to addition of bLigand as described.
rGHBP (50–200 μg/ml in 50 mM NaHCO3) was coated onto low-fluorescence MaxiSorp (Nunc) plates (100 μl/well) overnight at 4° C. The plates were blocked with PBS containing 2% non-fat milk and 0.05% BSA for 2 hr at room temperature, followed by three PBS washes. For competitions, serial dilutions of unlabelled growth hormone (0.1 nM-100 nM) or MAb 2C3 (0.67–67 nM) were added to the plates (100 μl/well) and incubated at room temperature for 1–2 hr. Biotinylated peptide or biotinylated GH (10× concentrations) were incubated in blocking buffer for 30 min to decrease non-specific binding. Ten microliters of the 10× concentrated material was added to the plates and incubated at room temperature for 1 hr to overnight.
The plates were then washed five times with Tris-buffered saline (pH 7.5) containing 0.1% Tween-20 (TTBS). To each well, 100 μl of europium-labeled streptavidin in DELFIA assay buffer (100 mM Tris-HCl, pH 7.8; 150 mM NaCl; 0.5% BSA; 0.05% bovine Ig; 0.05% NaN3; 0.01% Tween-20) was added and incubated for 1.5 hr at room temperature. The plates were then washed five times with TTBS and tapped dry. Subsequently, 100 μl of DELFIA enhancement solution (100 mM acetone-potassium hydrogen phthalate, pH 3.2; 15 mM 2-naphtyltrifluoroacetate; […] tri(n-octyl)-phosphine oxide; 0.1% Triton X-100) was added to each well, and the plates were shaken for 10 min at room temperature. Fluorescence of each sample well was measured at 615 nm using a DELFIA 1234 fluorometer (EG&G Wallac). General procedure and references as described by Wallac are available in “Lanthanide labeling for time-resolved fluorometry”: Wallac publication 1244–1126-03.

CC(C)C[C@@H]1NC(=O)[C@H](CO)NC(=O)[C@H](CCC(N)=O)NC(=O)[C@@H](NC(=O)[C@H](CC(C)C)NC(=O)[C@H](CC(=O)O)NC(=O)[C@H](CCCCN)NC(=O)[C@H](Cc2ccc(O)cc2)NC(=O)[C@@H](N)CC(=O)O)CSSC[C@@H](C(=O)N[C@@H](C)C(=O)N[C@@H](CCCCN)C(=O)N[C@@H](CCCCN)C(=O)O)NC(=O)[C@H](Cc2c[nH]c3ccccc23)NC(=O)CNC(=O)[C@H](C)NC(=O)[C@H](CC(C)C)NC(=O)[C@H](Cc2c[nH]c3ccccc23)NC(=O)CNC(=O)[C@@H]2CCCN2C(=O)[C@H](Cc2ccc(O)cc2)NC(=O)[C@H]([C@@H](C)O)NC(=O)[C@H](C(C)C)NC(=O)CNC1=O [H5] (H-DYKDLCQSLGVTYPGWLAGWCAKK-OH; disulfide 6-21; N-terminus and C-terminus assumed)
ELISA Competition, rGHBP, +BSA ([1]; ELISA signal, BSA 1 μM, phage concentrated 15×): 1.87 | ELISA Competition, rGHBP, +bGH ([1]; ELISA signal, bovine GH 1 μM, phage concentrated 15×): 0.32 | ELISA Competition, rGHBP, none ([1]; ELISA signal, no competitor, phage concentrated 15×): 1.91 | phage binding to rGHBP blocked by GH and MAb 2C3 ([1]; competition ELISA of phage binding): blocked both by GH and by MAb 2C3 | saturation of receptors [2]: could not be saturated
